The record followed here is patent US7713994B2 (Wyeth LLC, priority 2005, dated 2010).

This experiment deals with T1, cyclin D1/cdk 4 enzyme (Homo sapiens, UniProt P11802).
T1 construct: made in house; host or cells: Sf9 insect cells, recombinant baculovirus
In words: CDK4 ELISA kinase assay (phospho-Rb ser 795 detection). Particulars: In Vitro Enzyme Assay, cyclin D1/cdk 4, read-out: CDK4 IC50. The experiment is classed as biochemical. On the procedure:
• 1. High-binding ELISA microtiter plates (Costar) were coated with 40 μl of the kinase substrate (GST fusion of C-terminal fragment of the retinoblastoma susceptibility gene product) diluted to 10 μg/ml in tris-buffered saline (TBS), overnight at 4° C. • 2. Non-specific binding sites were blocked for 1 hour at 4° C. with Superblock in TBS (Pierce), and the plates rinsed with water. • 3. For the screen, 1.5 μl of test compound (200 μg/ml stock in 20% DMSO/20 mM HEPES, pH 7.5) was added to each well. Final dose of the test compound in the assay was 10 ug/ml. […] The kinase reaction (30 μl) was dispensed into each well. Reactions contained 200 μM ATP, 0.5 mg/ml bovine serum albumin (BSA; Sigma), and 0.5 μl partially purified cyclin D1/cdk 4 enzyme*. The enzyme complex is expressed in insect cells (Sf9) infected with recombinant baculovirus and partially purified using ammonium sulfate fractionation. Reaction volumes were adjusted to 30 μl with kinase assay buffer (50 mM HEPES, pH 7.5, 10 mM MgCl2, 5% glycerol, 10 mM 2-mercaptoethanol). • *: For CDK2 assay, 1.0 μl cyclin E/CDK2 enzyme (diluted 1:1000 in kinase assay buffer) was used. The enzyme is isolated from insect cells (Sf9) infected with recombinant baculovirus and partially purified using ammonium sulfate fractionation. For CDK1 assay, 0.08 μl cyclin B/CDK1 enzyme [New England BioLabs; the enzyme is isolated from insect cells (Sf9) infected with recombinant baculovirus carrying human cdc 2 and human cyclin B] was used.
[…] • 5. Plates were incubated at 30° C. for 1 hour. • 6. The reaction mixture was removed by aspiration and replaced with 250 μl TBS containing 0.1% Tween-20 and 5% nonfat dry milk (blocking buffer). The plates were incubated at 4° C. for 1 hour. • 7. The blocking buffer was removed and replaced with 50 μl of the primary antibody [anti-phospho-Rb ser 795 (New England BioLabs) diluted 1:1000 in blocking buffer]. Incubation was at 4° C. for 16-20 hours. • 8. The wells were rinsed 3 times with 250 μl of TBS containing 0.1% Tween-20 followed by the addition of 50 μl of secondary antibody [anti-rabbit IgG conjugated to horseradish peroxidase (Amersham Life Science) diluted 1:1000 in blocking buffer]. • 9. After a 1 hour incubation at room temperature, the wells were rinsed 3 times with 250 μl of TBS/0.1% Tween 20. • 10. TMB (3,3′,5,5′-tetramethylbenzidine dihydrochloride) substrate solution (100 μl; Pierce) was added to each well and the color development reaction allowed to proceed 5-10 minutes at room temperature with shaking. The reaction was stopped by the addition of 2N sulfuric acid (100 μl) and the absorbance values read at 450 nm in a microplate reader (Molecular Devices). Analysis of Results: • 1. The percentage of the absorbance value in wells containing the test compound relative to control wells (no test agent) was determined. • 2. IC50 values of selected compounds were determined from inhibition curves, after subtracting background values (no substrate).
(In general: An ELISA detects its analyte on a solid surface through an enzyme-linked reagent.)

T1 sequence (P11802 whole entry, species assumed): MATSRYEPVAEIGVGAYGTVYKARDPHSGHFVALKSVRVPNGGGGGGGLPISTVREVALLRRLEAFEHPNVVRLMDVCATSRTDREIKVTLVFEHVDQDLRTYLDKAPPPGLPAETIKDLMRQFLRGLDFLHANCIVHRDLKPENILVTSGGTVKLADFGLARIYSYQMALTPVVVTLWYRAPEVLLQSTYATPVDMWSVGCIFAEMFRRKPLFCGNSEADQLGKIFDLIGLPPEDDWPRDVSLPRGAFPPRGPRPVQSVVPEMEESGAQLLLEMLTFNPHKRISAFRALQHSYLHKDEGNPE
T1 sequence (P24385 whole entry partner, species assumed): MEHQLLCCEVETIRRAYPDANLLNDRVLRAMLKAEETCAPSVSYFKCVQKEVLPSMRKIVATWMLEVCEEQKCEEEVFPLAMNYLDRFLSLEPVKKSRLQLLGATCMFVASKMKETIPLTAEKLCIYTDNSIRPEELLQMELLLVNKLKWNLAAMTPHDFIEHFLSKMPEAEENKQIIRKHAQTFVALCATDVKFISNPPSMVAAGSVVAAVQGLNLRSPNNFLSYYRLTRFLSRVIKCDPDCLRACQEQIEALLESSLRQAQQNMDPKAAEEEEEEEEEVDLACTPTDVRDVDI

With `N#CCc1ccc(NC=C2C(=O)NC(=O)c3ccc(-c4ccc(C(=O)O)cc4)cc32)cc1` [Example 707, 4-{4-[(4-Cyanomethyl-phenylamino)-methylene]-1,3-dioxo-1,2,3,4-tetrahydro-isoquinolin-6-yl}-benzoic acid], the 50% inhibitory concentration (IC50) worked out at 3.8 µM.
Under `COc1cccc(-c2ccc3c(c2)C(=CNc2ccc(CC#N)cc2)C(=O)NC3=O)c1` [Example 702, (4-{[6-(3-Methoxy-phenyl)-1,3-dioxo-2,3-dihydro-1H-isoquinolin-4-ylidenemethyl]-amino}-phenyl)-acetonitrile] stands 20.9 µM; under `CN1CCN(c2ccc(NC=C3C(=O)NC(=O)c4ccc(-c5cccc(N)c5)cc43)cc2)CC1` [Example 810, 6-(3-Amino-phenyl)-4-{[4-(4-methyl-piperazin-1-yl)-phenylamino]-methylene}-4H-isoquinoline-1,3-dione], 2.76 µM; under `O=C1NC(=O)c2ccccc2C1=CNCc1ccc(NS(=O)(=O)c2cccs2)cc1` [Example 588, Thiophene-2-sulfonic acid (4-{[(1,3-dioxo-2,3-dihydro-1H-isoquinolin-4-ylidenemethyl)-amino]-methyl}-phenyl)-amide], 37.3 µM.
Under `O=C1NC(=O)c2ccccc2C1=CNCc1cccc(NC(=O)C2CC2)c1` [Example 586, Cyclopropanecarboxylic acid (3-{[(1,3-dioxo-2,3-dihydro-1H-isoquinolin-4-ylidenemethyl)-amino]-methyl}-phenyl)-amide] stands 31.3 µM; under `CN1CCN(c2ccc(NC=C3C(=O)NC(=O)c4ccc(C=CCN5CC(=O)NC5=O)cc43)cc2)CC1` [Example 800, 6-[3-(2,4-Dioxo-imidazolidin-1-yl)-propenyl]-4-{[4-(4-methyl-piperazin-1-yl)-phenylamino]-methylene}-4H-isoquinoline-1,3-dione], 5.04 µM.
For the compound `NS(=O)(=O)c1ccc(CNC=C2C(=O)NC(=O)c3ccc(-c4ccccc4C(F)(F)F)cc32)cc1` [Example 745, 4-({[1,3-Dioxo-6-(2-trifluoromethyl-phenyl)-2,3-dihydro-1H-isoquinolin-4-ylidenemethyl]-amino}-methyl)-benzenesulfonamide], the 50% inhibitory concentration (IC50) is 19.9 µM.
Under `CN1CCN(c2ccc(NC=C3C(=O)NC(=O)c4ccc(-c5cccc(C(=O)O)c5)cc43)cc2)CC1` [Example 686, 3-(4-{[4-(4-Methyl-piperazin-1-yl)-phenylamino]-methylene}-1,3-dioxo-1,2,3,4-tetrahydro-isoquinolin-6-yl)-benzoic acid] stands 6.4 µM; under `O=C1NC(=O)c2ccccc2C1=CNCc1ccc(S(=O)(=O)NCc2cccnc2)cc1` [Example 607, 4-{[(1,3-Dioxo-2,3-dihydro-1H-isoquinolin-4-ylidenemethyl)-amino]-methyl}-N-pyridin-3-ylmethyl-benzenesulfonamide], 45.5 µM; under `CC(C)c1cccc(-c2ccc3c(c2)C(=CNCc2ccc(O)c(O)c2)C(=O)NC3=O)c1` [Example 791, 4-[(3,4-Dihydroxy-benzylamino)-methylene]-6-(3-isopropyl-phenyl)-4H-isoquinoline-1,3-dione], 4.99 µM.
With `NS(=O)(=O)c1ccc(CNC=C2C(=O)NC(=O)c3ccccc32)cc1` [Example 540, 4-{[(1,3-Dioxo-2,3-dihydro-1H-isoquinolin-4-ylidenemethyl)-amino]-methyl}-benzenesulfonamide], the half-inhibitory concentration (IC50) was 19.7 µM.
Regarding `O=C1NC(=O)c2ccc(-c3cccc(-c4ccccc4)c3)cc2C1=CNCc1ccc(O)c(O)c1` [Example 787, 6-Biphenyl-3-yl-4-[(3,4-dihydroxy-benzylamino)-methylene]-4H-isoquinoline-1,3-dione], the IC50 was determined as 2.27 µM.
Take `CN1CCN(c2ccc(NC=C3C(=O)NC(=O)c4ccc(C=CCc5ccccc5O)cc43)cc2)CC1` [Example 801, 6-[3-(2-Hydroxy-phenyl)-propenyl]-4-{[4-(4-methyl-piperazin-1-yl)-phenylamino]-methylene}-4H-isoquinoline-1,3-dione]: the 50% inhibitory concentration (IC50) was found to be 15.5 µM.
Take `CN1CCN(c2ccc(NC=C3C(=O)NC(=O)c4ccc(-c5ccc(Cl)cc5Cl)cc43)cc2)CC1` [Example 811, 6-(2,4-Dichloro-phenyl)-4-{[4-(4-methyl-piperazin-1-yl)-phenylamino]-methylene}-4H-isoquinoline-1,3-dione]: the IC50 came to 22.3 µM.
Under `O=C1NC(=O)c2ccccc2C1=CNCc1cccc(NS(=O)(=O)CC(F)(F)F)c1` [Example 582, 2,2,2-Trifluoro-ethanesulfonic acid (3-{[(1,3-dioxo-2,3-dihydro-1H-isoquinolin-4-ylidenemethyl)-amino]-methyl}-phenyl)-amide] stands 9.6 µM; under `N#CCc1ccc(NC=C2C(=O)NC(=O)c3ccc(C=Cc4ccncc4)cc32)cc1` [Example 649, (4-{[1,3-Dioxo-6-(2-pyridin-4-yl-vinyl)-2,3-dihydro-1H-isoquinolin-4-ylidenemethyl]-amino}-phenyl)-acetonitrile], 20 µM; under `CN1CCN(c2ccc(NC=C3C(=O)NC(=O)c4ccc(C=Cc5ccc([N+](=O)[O-])cc5)cc43)cc2)CC1` [Example 829, 4-{[4-(4-Methyl-piperazin-1-yl)-phenylamino]-methylene}-6-[2-(4-nitro-phenyl)-vinyl]-4H-isoquinoline-1,3-dione], 26.5 µM.
To `O=C1NC(=O)c2ccccc2C1=CNCCc1ccc(O)c(O)c1` [Example 544, 4-{[2-(3,4-Dihydroxy-phenyl)-ethylamino]-methylene}-4H-isoquinoline-1,3-dione] belongs 16.2 µM.
For the compound `CCCS(=O)(=O)Nc1ccc(CNC=C2C(=O)NC(=O)c3ccccc32)cc1` [Example 592, Propane-1-sulfonic acid (4{[(1,3-dioxo-2,3-dihydro-1H-isoquinolin-4-ylidenemethyl)-amino]-methyl}-phenyl)-amide], the IC50 is 29.9 µM.
Under `CN1CCN(c2ccc(NC=C3C(=O)NC(=O)c4ccc(-c5cccc(-c6ccccc6)c5)cc43)cc2)CC1` [Example 697, 6-Biphenyl-3-yl-4-{[4-(4-methyl-piperazin-1-yl)-phenylamino]-methylene}-4H-isoquinoline-1,3-dione] stands 48.6 µM; under `CN1CCN(c2ccc(NC=C3C(=O)NC(=O)c4ccc(C=CCCO)cc43)cc2)CC1` [Example 796, 6-(4-Hydroxy-but-1-enyl)-4-{[4-(4-methyl-piperazin-1-yl)-phenylamino]-methylene}-4H-isoquinoline-1,3-dione], 2.27 µM; under `COc1ccc(CNC=C2C(=O)NC(=O)c3ccc(C=Cn4ccnc4)cc32)cc1O` [Example 733, 4-[(3-Hydroxy-4-methoxy-benzylamino)-methylene]-6-(2-imidazol-1-yl-vinyl)-4H-isoquinoline-1,3-dione], 0.01 µM.
To `O=C1NC(=O)c2ccccc2C1=CNc1cccc(C(=O)O)c1` [Example 542, 3-[(1,3-Dioxo-2,3-dihydro-1H-isoquinolin-4-ylidenemethyl)-amino]-benzoic acid] belongs 34.8 µM.
Under `O=C1NC(=O)c2ccccc2C1=CNc1ccccc1-c1nc2ccccc2[nH]1` [Example 551, 4-{[2-(1H-Benzoimidazol-2-yl)-phenylamino]-methylene}-4H-isoquinoline-1,3-dione] stands 14.9 µM; under `CN1CCN(c2ccc(NC=C3C(=O)NC(=O)c4ccc(C=CCOCCO)cc43)cc2)CC1` [Example 799, 6-[3-(2-Hydroxy-ethoxy)-propenyl]-4-{[4-(4-methyl-piperazin-1-yl)-phenylamino]-methylene}-4H-isoquinoline-1,3-dione], 6.37 µM; under `CS(=O)(=O)Nc1cccc(CNC=C2C(=O)NC(=O)c3ccccc32)c1` [Example 581, N-(3-{[(1,3-Dioxo-2,3-dihydro-1H-isoquinolin-4-ylidenemethyl)-amino]-methyl}-phenyl)-methanesulfonamide], 23.6 µM.

For orientation: IC50 means the point on the concentration scale where inhibition reaches its midpoint.
